Measured values as given in US20080262082A1, “COMPOSITION CONTAINING S-(-)-TULIPALIN B OR ACETYLATED-S-(-)-TULIPALIN B” (BIO SPECTRUM, INC., priority 2007, published 2008).
Read-outs that look alike come from different tables or passages of the source.

How the values were obtained:
Assay type in all cases: cell-based
[1] = test system: Shigella flexneri KCTC 2517; assay: MIC by broth dilution method; conditions: S. flexneri, 37° C., 24 hours
[2] = test system: Propionibacterium granulosum ATCC 25564; assay: Agar diffusion antibacterial test (anaerobic); conditions: P. granulosum
[3] = test system: Salmonella typhimurium KCTC 2514; assay: Agar diffusion antibacterial test (aerobic); conditions: S. typhimurium
[4] = test system: Streptococcus mutans KCTC 3065; assay: Agar diffusion antibacterial test (aerobic); conditions: S. mutans
[5] = test system: Clostridium perfringens KCCM 12098; conditions: C. perfringens
[6] = test system: Clostridium dificile KCCM 12115; assay: MIC by broth dilution method; conditions: C. difficile, 37° C., 24 hours
[7] = test system: 18 species of pathogenic bacteria (aerobic); assay: Agar diffusion antibacterial test, overall (aerobic); conditions: all kinds of test bacteria (aerobic), agar diffusion
[8] = test system: Salmonella enteritidis KCTC 12400; assay: Agar diffusion antibacterial test (aerobic); conditions: S. enteritidis
[9] = test system: Helicobacter pylori KCTC 5335; assay: Agar diffusion antibacterial test (anaerobic); conditions: H. pylori
[10] = test system: Pseudomonas aeruginosa KCTC 1637; assay: MIC by broth dilution method; conditions: P. aeruginosa, 37° C., 24 hours
[11] = test system: Propionibacterium acne ATCC 6919; assay: Agar diffusion antibacterial test (anaerobic); conditions: P. acne
[12] = test system: Bacillus subtilis KCTC 1021; assay: MIC by broth dilution method; conditions: B. subtilis, 37° C., 24 hours
[13] = test system: Streptococcus mutans KCTC 3065; assay: MIC by broth dilution method; conditions: S. mutans, 37° C., 24 hours
[14] = test system: Yersinia enterocolitica KCCM 41657; assay: MIC by broth dilution method; conditions: Y. enterocolitica, 37° C., 24 hours
[15] = test system: Staphylococcus aureus KCTC 1916; assay: Agar diffusion antibacterial test (aerobic); conditions: S. aureus
[16] = test system: Pseudomonas aeruginosa KCTC 1637; assay: Agar diffusion antibacterial test (aerobic); conditions: P. aeruginosa
[17] = test system: Actiinobacillus ureae KCTC 2674; assay: Agar diffusion antibacterial test (aerobic); conditions: A. ureae
[18] = test system: Legionella pneumophila KCCM 41779; conditions: L. pneumophila
[19] = test system: Aeromonas salmonicida KCTC 12266; assay: MIC by broth dilution method; conditions: A. salmonicida, 37° C., 24 hours
[20] = test system: Escherichia coli KCTC 1039; assay: Agar diffusion antibacterial test (aerobic); conditions: E. coli

C=C1C(=O)OC[C@H]1O [S-(−)-tulipalin B, (4S)-4-hydroxy-3-methylene-oxolan-2-one]
MIC [1]: 0.025%
Inhibitory zone diameter ([2]; treatment concentration 0.03%): 10.5 mm
Inhibitory zone diameter ([2]; treatment concentration 0.1%): 13 mm
Inhibitory zone diameter ([2]; treatment concentration 0.3%): 15 mm
Inhibitory zone diameter ([2]; treatment concentration 1.0%): 16 mm
Inhibitory zone diameter ([3]; treatment concentration 0.03%): 11 mm
Inhibitory zone diameter ([3]; treatment concentration 0.1%): 13 mm
Inhibitory zone diameter ([3]; treatment concentration 0.3%): 17 mm
Inhibitory zone diameter ([3]; treatment concentration 1.0%): 20 mm
Inhibitory zone diameter ([4]; treatment concentration 0.1%): 11 mm
Inhibitory zone diameter ([4]; treatment concentration 0.3%): 13 mm
Inhibitory zone diameter ([4]; treatment concentration 1.0%): 16 mm
Inhibitory zone diameter ([5]; treatment concentration 0.1%): 11 mm
Inhibitory zone diameter ([5]; treatment concentration 0.3%): 13 mm
Inhibitory zone diameter ([5]; treatment concentration 1.0%): 14 mm
MIC [6]: 0.10%
Antibacterial effects [7]: high antibacterial effects
Inhibitory zone diameter ([8]; treatment concentration 0.03%): 11 mm
Inhibitory zone diameter ([8]; treatment concentration 0.1%): 13 mm
Inhibitory zone diameter ([8]; treatment concentration 0.3%): 16.5 mm
Inhibitory zone diameter ([8]; treatment concentration 1.0%): 20 mm
Inhibitory zone diameter ([9]; treatment concentration 0.01%): 10.5 mm
Inhibitory zone diameter ([9]; treatment concentration 0.03%): 12 mm
Inhibitory zone diameter ([9]; treatment concentration 0.1%): 14 mm
Inhibitory zone diameter ([9]; treatment concentration 0.3%): 16 mm
Inhibitory zone diameter ([9]; treatment concentration 1.0%): 18 mm
MIC [10]: 0.11%
Inhibitory zone diameter ([11]; treatment concentration 0.03%): 11 mm
Inhibitory zone diameter ([11]; treatment concentration 0.1%): 13 mm
Inhibitory zone diameter ([11]; treatment concentration 0.3%): 14 mm
Inhibitory zone diameter ([11]; treatment concentration 1.0%): 16 mm
MIC [12]: 0.04%
MIC [13]: 0.10%
MIC [14]: 0.015%
Inhibitory zone diameter ([15]; treatment concentration 0.1%): 12 mm
Inhibitory zone diameter ([15]; treatment concentration 0.3%): 15 mm
Inhibitory zone diameter ([15]; treatment concentration 1.0%): 18 mm
Inhibitory zone diameter ([16]; treatment concentration 0.3%): 12 mm
Inhibitory zone diameter ([16]; treatment concentration 1.0%): 14 mm
Inhibitory zone diameter ([17]; treatment concentration 0.03%): 11 mm
Inhibitory zone diameter ([17]; treatment concentration 0.1%): 12 mm
Inhibitory zone diameter ([17]; treatment concentration 0.3%): 17 mm
Inhibitory zone diameter ([17]; treatment concentration 1.0%): 19 mm
Inhibitory zone diameter ([18]; treatment concentration 0.03%): 11 mm
Inhibitory zone diameter ([18]; treatment concentration 0.1%): 12 mm
Inhibitory zone diameter ([18]; treatment concentration 0.3%): 16 mm
Inhibitory zone diameter ([18]; treatment concentration 1.0%): 18 mm
MIC [19]: 0.01%
Inhibitory zone diameter ([20]; treatment concentration 0.01%): 10.5 mm
Inhibitory zone diameter ([20]; treatment concentration 0.03%): 11.5 mm
Inhibitory zone diameter ([20]; treatment concentration 0.1%): 13 mm
Inhibitory zone diameter ([20]; treatment concentration 0.3%): 16 mm
Inhibitory zone diameter ([20]; treatment concentration 1.0%): 20 mm
